Values of other authors in patent US7652024B2, “Acylated spiropiperidine derivatives as melanocortin-4 receptor modulators” (Merck Sharp & Dohme Corp., priority 2005, dated 2010).

Test system: erectile dysfunction patients

CCCc1nn(C)c2c(=O)[nH]c(-c3cc(S(=O)(=O)N4CCN(C)CC4)ccc3OCC)nc12 [Sildenafil, sildenafil]
effective in share of patients: about 70%
